The values that follow come from paper PMC9828244, “Molecular and functional characterization of an evolutionarily conserved CREB‐binding protein in the Lymnaea CNS” (The FASEB Journal, 2022).

Structures are written as SMILES.

The experiment addresses T1, LymCBP HAT domain (Lymnaea stagnalis, UniProt E2QC33).
T1 construct: HAT (catalytic) domain, R1240 to K1641 of LymCBP, His6-tag, pET28a(+), expressed in E. coli Rosetta-gami 2(DE3); cDNA from Lymnaea CNS; Ni-NTA and cation exchange
The experiment can be described thus: autoradiography of […]-acetylated histone H1 after SDS-PAGE. It is filed as biochemical. The conditions noted are these: pH 8.0, 30 °C, 4 h.

Where [1] appears, read: 50 uM inhibitor, calf thymus histone H1, [14C]-acetyl-CoA.

T1 sequence (E2QC33 entry or part of it): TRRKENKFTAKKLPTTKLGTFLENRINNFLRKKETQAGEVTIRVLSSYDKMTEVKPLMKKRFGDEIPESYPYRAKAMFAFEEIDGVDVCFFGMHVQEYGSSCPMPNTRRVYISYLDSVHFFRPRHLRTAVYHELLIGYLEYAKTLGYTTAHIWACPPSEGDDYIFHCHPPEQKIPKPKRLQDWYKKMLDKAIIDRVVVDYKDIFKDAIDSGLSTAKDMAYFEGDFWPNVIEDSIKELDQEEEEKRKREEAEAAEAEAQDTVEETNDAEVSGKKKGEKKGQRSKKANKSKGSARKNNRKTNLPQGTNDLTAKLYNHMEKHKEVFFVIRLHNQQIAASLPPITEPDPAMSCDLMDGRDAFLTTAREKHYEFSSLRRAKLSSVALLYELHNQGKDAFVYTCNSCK

In the case of `CC(=O)SCCNC(=O)CCNC(=O)[C@H](O)C(C)(C)COP(=O)(O)OP(=O)(O)OC[C@H]1O[C@@H](n2cnc3c(N)ncnc32)[C@H](O)[C@@H]1OP(=O)(O)O` [[14C]-acetyl-CoA], the “autoradiography of [14C]-acetylated histone H1 after SDS-PAGE” value (shortened to “autoradiography”) (calf thymus histone H1 as acetyl acceptor, no inhibitor, labelled compound) is listed as “in the absence of HAT inhibitors in the incubation solution, LymCBP acetylated histone H1”. For the molecule `COc1cc(/C=C/C(=O)CC(=O)/C=C/c2ccc(O)c(OC)c2)ccc1O` [curcumin], the “autoradiography” value under setting [1] was “In the presence of HAT inhibitors in the incubation solution, however, H1 acetylation signals were eliminated”.

Take `CCCCCCCCCCCCCCCc1cccc(O)c1C(=O)O` [anacardic acid]: under setting [1], the “autoradiography” value is “In the presence of HAT inhibitors in the incubation solution, however, H1 acetylation signals were eliminated”. As for `C=C(C)[C@@H](CC=C(C)C)C[C@@]12C[C@@H](CC=C(C)C)C(C)(C)[C@@](CC=C(C)C)(C(=O)C(=C(O)c3ccc(O)c(O)c3)C1=O)C2=O` [garcinol], under setting [1], the “autoradiography” value is on record as “In the presence of HAT inhibitors in the incubation solution, however, H1 acetylation signals were eliminated”.
